The numbers were not newly measured in paper PMC5563391 (Investigational new drugs, 2015), which cites them from elsewhere.

The structures appear in SMILES notation.

This series concerns patients with CML or Ph+ ALL. As to conditions: phase 1 study; cited from earlier work.

For `CO[C@@H](C(=O)N1Cc2n[nH]c(NC(=O)c3ccc(N4CCN(C)CC4)cc3)c2C1)c1ccccc1` [danusertib], the patients with responses was 6 of 23.
